In patent US20070167369A1, “Novel use of isolated polypeptide comprising four FAS-1 domains, EM1 domain and RGD motif” (KYUNGPOOK NATIONAL UNIVERSITY INDUSTRY-ACADEMIC COOPERATION …, priority 2004, published 2007):

Test system: caspase-3
Test: Caspase-3 activity in HUVECs (Example 7-2)
Assay type: cell-based, human
Details: caspase-3-specific inhibitor added to samples
Description: With respect to the induction of endothelial cell apoptosis (active cell death) by the fas-1 domain, which had been confirmed in Example 7-1 above, the present inventors measured the activity of caspase-3, which is activated when apoptosis occurs, in the cells treated with the fas-1 domain.
HUVECs were spread onto a 100-mm plate (10 ml culture solution) with M199 medium containing 10% FBS, followed by incubation in a 37° C. incubator for 12 hours. After the incubation, the medium was removed from the plate, the cells were added with fresh medium containing 0.1% FBS and further incubated for 24 hours. The cell-containing medium was treated with 5 μM or 20 μM of the fas-1 domain (βig-h3 D-IV) prepared in Example 1. A control was treated with PBS buffer. At 12 hours and 24 hours after the treatment, the cells were harvested. The caspase-3 activity of the cells was measured with an EnzCheck Caspase-3 Assay Kit(#2) (Molecular Probe Co., Eugene, Oreg., USA). Moreover, to verify that measured values are attributed to caspase-3 activity, each of the samples was treated with DEVD-CHO (Molecular Probe Co., Eugene, Oreg., USA) as a caspase-3-specific inhibitor. The control was treated with DMSO.

inhibition of caspase-3 activities of test groups and control group: inhibited
Substance: DEVD-CHO [reference compound]
